# Test results taken from EP2698383B1, “Detection of synthetic Cannabinoids” (priority 2012, dated 2014).
# Read-outs that look alike come from different tables or passages of the source.
# Key:
# Type in all cases: binding, sheep
# [1] = test system: Antibody 4.1
# Procedure: (§1) The wells of an enhanced binding 96 well polystyrene microtiter plate were coated with IgG fraction of antiserum (Antibody 4.1 or antibody 4.2) raised to Immunogen 4 in separate host animals, diluted in 10mM Tris, pH8.5 (125µl/well). The appropriate antibody coating dilution was determined using standard ELISA checkerboard techniques. The plate was incubated overnight at 4°C, washed 4 times over 10 minutes with Tris buffered saline containing Tween 20 (TBST) and tapped dry.
# (§2) Standard solutions of CP47,497 -C8 were prepared in TBST at 0, 2.5, 5, 10, 20, 40, 80 and 160ng/ml for Antibody 4.1, and at 0, 5, 10, 20, 40, 80, 160 and 320ng/ml for Antibody 4.2, and 50µl of each was added to the appropriate wells. 75µl of conjugate (Hapten 1-HRP - tracer 1 - see Figure 4) diluted in Tris buffer (pH 7.2) containing EDTA, D-mannitol, sucrose, thimerosal and BSA, was added to each of the wells. The appropriate dilution of conjugate was also determined using standard ELISA checkerboard techniques. The plate was incubated at 25°C for 1 hour. Excess unbound conjugate was removed by washing 6 times over a 10 minute period with TBST. 125µl of tetramethylbenzidine (TMB) substrate solution was added to each well of the plate that was then incubated for 20 minutes in the dark at room temperature. The reaction was terminated by addition of 125µl 0.2M H2SO4 to each well. The absorbance was then measured at 450nm using a microtiter plate reader.
# (§3) In order to determine the specificity of the competitive ELISAs, standard solutions of a range of structurally similar compounds were prepared in TBST. Using the calibration curves generated and employing a single level of cross reactants (100ng/ml), these were used to determine the cross-reactivity of each immunoassay with these substances. The results of this study are presented in Table 2, as %B/B0, employing antisera raised against Immunogen 2b (C8), tracer 1 (C7) and (±)-CP-47,497 (C8 homologue) as standard.
# [2] = test system: Antibody 4.2
# Procedure: as §1, §2, §3
# [3] = test system: antibodies raised against immunogen 2b; assay: Competitive ELISA cross-reactivity, for both antibodies; conditions: cross reactants 100ng/ml; tracer 1 (C7); (±)-CP-47,497 (C8 homologue) as standard
# Procedure: as §1, §2, §3
# [4] = Cross-reactants at 100ng/ml, tracer 1 (C7), (±)-CP-47,497 (C8 homologue) as standard
# [5] = standard 5 ng/ml, tracer 1 (C7)
# [6] = standard 10 ng/ml, tracer 1 (C7)
# [7] = standard 20 ng/ml, tracer 1 (C7)
# [8] = standard 40 ng/ml, tracer 1 (C7)
# [9] = standard 80 ng/ml, tracer 1 (C7)
# [10] = standard 160 ng/ml, tracer 1 (C7)
# [11] = standard concentration which produces 50% B/B0, tracer 1 (C7)
Compound,"%B/B0 [1, 4] [%]","%B/B0 [2, 4] [%]",%B/B0 [3],further results
"CCCCCCCC(C)(C)c1ccc(C2CCCC(O)C2)c(O)c1 (racemic) [(±)-CP-47,497 (C8 homologue)]",36.52,49.65,less than 50%,"%B/B0 ([1]; standard 2.5 ng/ml, tracer 1 (C7)): 82%; %B/B0 [1, 5]: 72%; %B/B0 [1, 6]: 60%; %B/B0 [1, 7]: 51%; %B/B0 [1, 8]: 43%; %B/B0 [1, 9]: 38%; %B/B0 [1, 10]: 34%; IC50 [1, 11]: 0.020922 µg/mL; %B/B0 [2, 5]: 88%; %B/B0 [2, 6]: 82%; %B/B0 [2, 7]: 72%; %B/B0 [2, 8]: 63%; %B/B0 [2, 9]: 52%; %B/B0 [2, 10]: 44%; %B/B0 ([2]; standard 320 ng/ml, tracer 1 (C7)): 37%; IC50 [2, 11]: 0.095992 µg/mL"
(-)-11-nor-9-Carboxy-delta9-THC,–,–,–,%B/B0 [1]: 95.23%; %B/B0 [2]: 94.38%
CCCCCCC(C)(C)c1cc(O)c2c(c1)OC(C)(C)[C@@H]1CC=C(CO)C[C@@H]21 [HU-210],96.01,92.94,greater than 80%,–
"CCCCCCC(C)(C)c1cc(O)c2c(c1)OC(C)(C)[C@H]1CC=C(CO)C[C@H]21 [HU-211 (Dexanabinol), Dexanabinol]",96.76,95.84,greater than 80%,–
"(-)-CP 55,940",–,–,greater than 80%,%B/B0 [1]: 91.26%; %B/B0 [2]: 97.23%
"CCCCCCC(C)(C)c1ccc([C@H]2CCC[C@@H](O)C2)c(O)c1 (racemic) [(±)-CP-47,497 (C7 homologue)]",37.14,48.85,less than 50%,–
"CCCCCCC(C)(C)C1=CC(=O)C(C2CCCC(O)C2)=CC1=O (racemic) [(±)-CP-47,497 (C7 para quinone analogue)]",82.66,89.82,greater than 80%,–
CCCCCc1cc(O)c2c(c1)OC(C)(C)[C@@H]1CCC(C)=C[C@@H]21 [Delta 9 THC],96.44,94.09,–,–
CCCCCCC(C)(C)c1cc(OC)c([C@@H]2C=C(CO)[C@@H]3C[C@H]2C3(C)C)c(OC)c1 [HU-308],98.37,94.81,–,–
"CCCCCCC(C)(C)c1ccc([C@@H]2C[C@H](O)CC[C@H]2CCCO)c(O)c1 (racemic) [(+-)-CP 55,940]",93.65,97.34,greater than 80%,–
"(+)-CP 55,940",–,–,greater than 80%,%B/B0 [1]: 95.98%; %B/B0 [2]: 96.91%
